According to paper PMC8000724, “Trans-Epithelial Transport, Metabolism, and Biological Activity Assessment of the Multi-Target Lupin Peptide [sequence] (P5) and Its Metabolite [sequence] (P5-Met)” (Nutrients, 2021):
Where two headings read alike, the source gives them in different places.

How the values were obtained:
[1] = test system: differentiated Caco-2 cells; settings: cited from earlier work
Procedure: From a physiological point of view, the dynamic equilibrium between the transport and degradation of bioactive peptides is crucially important. […] Indeed, the transport is more efficient and its degradation less extensive when P5 is incubated in the presence of peptides P3 and P7. It is important to note, however, that P5 and P7 have completely different behaviors, since the transport rate of P5 tested alone is 1.8 ...

[2] = test system: LDLR on HepG2 cell surface; assay: In-cell Western (ICW) assay, LDLR localized on HepG2 cell surface; format: cell-based, human; settings: PCSK9 alone 4 µg/mL, 2 h, mean ± SD
Procedure: For the experiments, a total of 3 × 10^4 HepG2 cells/well were seeded in 96-well plates. The following day, cells were washed with PBS and then starved overnight (O/N) in DMEM without FBS and antibiotics. After starvation, HepG2 cells were treated with 4.0 μg/mL PCSK9-WT and 4.0 μg/mL PCSK9 + peptides P5 and/or P5-met (50 µM) and vehicle (H2O) for 2 h at 37 °C under 5% CO2 atmosphere. Subsequently, they were fixed in 4% paraformaldehyde for 20 min at room temperature (RT). Cells were washed 5 times with 100 µL of PBS/well (each wash was for 5 min at RT) and the endogenous peroxides activity quenched adding 3% H2O2 for 20 min at RT. Non-specific sites were blocked with 100 µL/well of 5% bovine serum albumin (BSA, Sigma) in PBS for 1.5 h at RT. LDLR primary antibody solution (1:3000 in 5% BSA in PBS, 25 µL/well) was incubated O/N at +4 °C. Subsequently, the primary antibody solution was discarded and each sample was washed 5 times with 100 µL/well of PBS (each wash was for 5 min at RT). Goat anti-rabbit Ig-HRP secondary antibody solution (Santa Cruz) (1:6000 in 5% BSA in PBS, 50 µL/well), was added and incubated 1 h at RT. The secondary antibody solution was washed 5 times with 100 µL/well of PBS (each wash for 5 min at RT). Freshly prepared TMB substrate (Pierce, 100 µL/well) was added and the plate was incubated at RT until desired color was developed. The reaction was stopped with 2 M H2SO4 and then the absorbance at 450 nm was measured using the microplate reader Synergy H1 (Winooski, VT, USA). After the read, cells were stained by adding 1× Janus Green stain, incubating for 5 min at RT. The dye was removed and the sample washed 5 times with water. Afterward 100 µL 0.5 M HCl for well were added and incubated for 10 min. After 10 seconds shaking, the OD at 595 nm was measured using the microplate reader Synergy H1 (Winooski, VT, USA).

HepG2 cells = assay: Fluorescent LDL uptake by HepG2 cells; format: cell-based, human; settings: PCSK9 alone 4 µg/mL, 2 h; mean ± SD
Procedure: HepG2 cells (3 × 10^4/well) were seeded in 96-well plates and kept in complete growth medium for 2 days before treatment. The third day, cells were washed with PBS and then starved overnight (O/N) in DMEM without FBS and antibiotics. After starvation, they were treated with 4.0 μg/mL PCSK9 and 4.0 μg/mL PCSK9 + P5 and P5-met peptides (50.0 µM), and vehicle (H2O) for 2 h with at 37 °C under 5% CO2 atmosphere. At the end of the treatment, the culture medium was replaced with 50 μL/well LDL-DyLight™ 550 working solution (Cayman Chemical Company, Ann Arbor, MI, USA) prepared in DMEM without FBS and antibiotics. The cells were additionally incubated for 2 h at 37 °C and then the culture medium was aspirated and replaced with PBS (100 μL/well). The degree of LDL uptake was measured using the Synergy H1 fluorescent plate reader (Winooski, VT, USA) (excitation and emission wavelengths 540 and 570 nm, respectively). Fluorescent LDL-uptake was finally assessed following optimized protocol.

Row | Substance | Transport rate across Caco-2 monolayer ([1]; in mixture) | Transport rate across Caco-2 monolayer ([1]; tested alone) | Decrease of LDLR protein levels on HepG2 cell surface versus the control cells [2] [%] | Reduction of ability of HepG2 cells to uptake fluorescent LDL versus untreated cells (HepG2 cells) [%]
1 | LTFPGSAED [Peptide P7, lupin peptide used in mixture with P5 in the transport experiments] | 1.98 ± 0.21 ng/(mL × min) | 4.2 ± 0.6 ng/(mL × min) |  | 
2 | PCSK9: proprotein convertase subtilisin/kexin type-9 protein added to HepG2 cells at 4.0 μg/mL |  |  | 24.7 ± 1.9 | 43.5 ± 9.7
